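Following 48 hours of exposure in 96-well plates, responses at five concentrations were used to interpolate endpoints linearly. TGI: concentration producing complete growth inhibition.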 Square brackets hold non-standard residues; d marks the D form. Peptide text beside a SMILES is read from it. Phe(4-NO2) = N[CH](Cc1ccc([N+](=O)[O-])cc1)C(=O)O
Experiments:
Test in all cases: NCI tumour cell line growth inhibition, 48 h
SW-620 colon = test system: SW-620 colon
RPMI-8226 leukemia = test system: RPMI-8226 leukemia
SK-MEL-28 melanoma = test system: SK-MEL-28 melanoma
HS 578T breast = test system: HS 578T breast
NCI/ADR-RES ovarian = test system: NCI/ADR-RES ovarian
ACHN renal = test system: ACHN renal
UACC-257 melanoma = test system: UACC-257 melanoma
TK-10 renal = test system: TK-10 renal
HCT-15 colon = test system: HCT-15 colon
SF-539 CNS = test system: SF-539 CNS
HOP-92 NSCLC = test system: HOP-92 NSCLC
T-47D breast = test system: T-47D breast
HCC-2998 colon = test system: HCC-2998 colon

| SMILES | TGI (SW-620 colon) [µM] | TGI (RPMI-8226 leukemia) [µM] | TGI (SK-MEL-28 melanoma) [µM] | TGI (HS 578T breast) [µM] | TGI (NCI/ADR-RES ovarian) [µM] | TGI (ACHN renal) [µM] | TGI (UACC-257 melanoma) [µM] | TGI (TK-10 renal) [µM] | TGI (HCT-15 colon) [µM] | TGI (SF-539 CNS) [µM] | TGI (HOP-92 NSCLC) [µM] | TGI (T-47D breast) [µM] | TGI (HCC-2998 colon) [µM] |
| --- | --- | --- | --- | --- | --- | --- | --- | --- | --- | --- | --- | --- | --- |
| COC(=O)CCC(NC(=O)C(CCC(=O)OC)NC(=O)C(CCC(=O)OC)NC(=O)C(CCC(=O)OC)NC(=O)C(CCC(=O)OC)NC(=O)C(Cc1ccc([N+](=O)[O-])cc1)NC(=O)C(CCC(=O)OC)NC(=O)C(CCC(=O)OC)NC(=O)C(CCC(=O)OC)NC(=O)C(CCC(=O)OC)NC(=O)C(CCC(=O)OC)NC(C)=O)C(N)=O (stereo not drawn) (Ac-E(OMe)E(OMe)E(OMe)E(OMe)E(OMe)[Phe(4-NO2)]E(OMe)E(OMe)E(OMe)E(OMe)E(OMe)-NH2; configuration not given here) | > 100 | > 100 | > 100 | > 100 | > 100 | > 100 | > 100 | > 100 |  |  |  |  |  |
| O=c1oc2ccccc2n1CCCn1c(=O)oc2ccccc21 | > 100 | > 100 | > 100 | > 100 | > 100 | > 100 | > 100 | > 100 | > 100 | > 100 |  |  |  |
| Cc1nn(C(=O)c2ccncc2)c2c1C(c1ccc([N+](=O)[O-])cc1)SC(N)=N2 (stereo not drawn) | > 100 | > 100 | > 100 | > 100 | > 100 | > 100 | > 100 | > 100 | > 100 | > 100 | > 100 | > 100 |  |
| O=C(c1cccc2cc(O)ccc12)c1cn(CCN2CCOCC2)c2ccccc12 | > 100 | 68.8 | > 100 |  |  | > 100 | 56 | 50.9 |  | > 100 | 71.6 | > 100 |  |
| CC1(C)/C(=N\Nc2ccc([N+](=O)[O-])cc2[N+](=O)[O-])C2CCC1C2 (stereo not drawn) | > 100 | > 100 | > 100 | 98.6 | > 100 | > 100 | > 100 | > 100 | > 100 |  | > 100 | > 100 |  |
| CS(=O)(=O)CCC(N)P(=O)(O)O (stereo not drawn) | > 100 | > 100 | > 100 | > 100 | > 100 | > 100 | > 100 | > 100 | > 100 |  | > 100 | > 100 |  |
| COc1cc2c3c(c1OC)C(=O)C(=O)C1=C3N(CCC1)CC2 | > 100 |  | > 100 | 47.6 | > 100 | > 100 | 67 | > 100 | > 100 | 80.1 | 60.4 | > 100 | > 100 |
| COc1ccc(S(=O)(=O)Nc2ccc(-c3csc(N4C(=O)/C(=C/c5cccs5)N=C4c4ccccc4)n3)cc2)cc1Cl | > 100 |  | > 100 | 93.3 | > 100 | > 100 | > 100 | > 100 | 70.6 | > 100 | 72 | 85 | > 100 |
| Cc1ccc2c(=O)c(C(=O)NNC(=S)NC3CCCCC3)c[nH]c2n1 | > 100 | > 100 | > 100 | > 100 | > 100 | > 100 | > 100 | > 100 | > 100 |  |  | > 100 |  |
| CCCCN1CCC(O)(c2cc(C(=O)O)[nH]c2-c2cc(C)no2)C1=O (stereo not drawn) | > 100 | > 100 | > 100 | > 100 | > 100 | > 100 | > 100 | > 100 | > 100 |  | > 100 |  | > 100 |
| CO/N=C(\C(=O)[N-][n+]1cnn(CC(=O)O)c1)c1csc(N)n1 | > 10 | > 10 | > 10 |  |  | > 10 | > 10 | > 10 | > 10 |  | > 10 | > 10 | > 10 |
| COc1ccc(NC(=S)Nc2c(C)n(C)n(-c3ccccc3)c2=O)cc1 | > 100 | > 100 | > 100 | > 100 | > 100 | > 100 | > 100 | > 100 | > 100 | > 100 | > 100 |  | > 100 |
| COc1ccc2c(c1)C(=O)[C@@](Nc1ccc(C=O)cc1)(OC)[C@@](OC)(c1ccc([N+](=O)[O-])cc1)O2 | > 10 | > 10 | > 10 | > 10 | > 10 | > 10 | > 10 | > 10 | > 10 | > 10 |  | > 10 | > 10 |
| CC1=CC(=O)/C(=C/N2C(=O)CNC2=S)C(=O)O1 | > 100 |  | > 100 |  | > 100 | > 100 | > 100 | > 100 | > 100 | > 100 | > 100 | > 100 | > 100 |
| CCOc1ncnc2ccc(Cl)c(I)c12 | > 100 | > 100 | > 100 |  |  | > 100 | > 100 | > 100 | > 100 |  |  |  | > 100 |
| Nc1nc(Cc2ccccc2)nc(Cc2ccccc2)c1-c1ccccc1 | > 100 |  | > 100 | > 100 | 55 | > 100 | > 100 | > 100 | 84.3 |  | 59.6 | > 100 | > 100 |
| COc1ccc(/C=C2/SC(c3c(O)ccc4ccccc34)N(NC(=O)CCCCCCCCC(=O)NN3C(=O)/C(=C\c4ccc(OC)c(OC)c4)SC3c3c(O)ccc4ccccc34)C2=O)cc1OC (stereo not drawn) | > 100 |  | > 100 |  | 32.1 | > 54.1 | > 28.5 | > 100 | > 100 | 46 | 23.3 | 48.9 | > 100 |
| O=P(O)(O)CC1OC(CO)C(O)C1O (stereo not drawn) | > 100 |  | > 100 | > 100 | > 100 | > 100 | > 100 | > 100 | > 100 | > 100 | > 100 | > 100 | > 100 |
